Assays:
[1] = tested on: methionine N^α -acetyltransferase (M-N^α -AT); test: Relative activity of M-N^α -AT for N^α -acetylation of synthetic peptides; format: biochemical, Saccharomyces cerevisiae; design: tested at 50 µM; details: Table 7, influence of the penultimate amino terminal residue
Experimental: (§1) N^α -acetylt[…] was determined as previously described [Lee et al., J. Biol. Chem. 263:14948-14955 (1988)]. Aliquots of the lysate or chromatographic fractions were added to 1.5 ml Eppendorf tubes containing a reaction mixture of 50 mM HEPES, pH 7.4, 150 mM KCl, 1 mM DTT, 25 μM [^3 H] acetyl coenzyme A (0.5 μCi) and 50 μM synthetic peptide with an adjusted final volume of 100 μl. The assay mixture was incubated at 30° C. for 30 min. The reaction was stopped by adding 17 μl of 0.5M acetic acid and chilled in an ice bath. The reaction samples were filtered through SP membrane discs (Cuno) (previously pre-swollen in 0.5M acetic acid), and then washed three times with 1 ml of 0.5M acetic acid on a Millipore 1225 sampling manifold. The partially dried membranes were placed in scintillation cocktail and counted with a Beckman LS 3801 scintillation counter. One unit of activity was defined as the amount of enzyme able to transfer 1 pmol of [^3 H] acetyl group from [^3 H] acetyl coenzyme A to synthetic peptide per min under standard enzyme assay conditions defined above.
(§2) In order to compare the relative specificity and activity of the methionine N^α -acetylt[…] (M-N^α -AT) of the present invention with the specificity and activity of the AAA1 N^α -acetyltransferase (N^α -AT) of Lee, F.-J. S., et al., J. Bacteriol. 171, (1989), U.S. Patent Application of John A. Smith, and Fang-Jen S. Lee, filed Oct. 25, 1989, entitled "ISOLATION OF STRAINS OF SAC[…] ALTERED N^α -ACETYLT[…]" (which references have been incorporated herein by reference) synthetic peptides were prepared. These peptides were assessed for their ability to serve as substrates for the two enzymes. In Table 6, the effect of the amino terminal amino acid on activity is investigated; in Table 7, the effect of the penultimate amino terminal amino acid on activity is investigated.

[2] = target: T1, AAA1 N^α -acetyltransferase (N^α -AT) (Saccharomyces cerevisiae, UniProt P07347+P12945); test: Relative activity of N^α -AT for N^α -acetylation of synthetic peptides; format: biochemical; details: Table 7, influence of the penultimate amino terminal residue
T1 sequence (P12945 2-854 limits assumed): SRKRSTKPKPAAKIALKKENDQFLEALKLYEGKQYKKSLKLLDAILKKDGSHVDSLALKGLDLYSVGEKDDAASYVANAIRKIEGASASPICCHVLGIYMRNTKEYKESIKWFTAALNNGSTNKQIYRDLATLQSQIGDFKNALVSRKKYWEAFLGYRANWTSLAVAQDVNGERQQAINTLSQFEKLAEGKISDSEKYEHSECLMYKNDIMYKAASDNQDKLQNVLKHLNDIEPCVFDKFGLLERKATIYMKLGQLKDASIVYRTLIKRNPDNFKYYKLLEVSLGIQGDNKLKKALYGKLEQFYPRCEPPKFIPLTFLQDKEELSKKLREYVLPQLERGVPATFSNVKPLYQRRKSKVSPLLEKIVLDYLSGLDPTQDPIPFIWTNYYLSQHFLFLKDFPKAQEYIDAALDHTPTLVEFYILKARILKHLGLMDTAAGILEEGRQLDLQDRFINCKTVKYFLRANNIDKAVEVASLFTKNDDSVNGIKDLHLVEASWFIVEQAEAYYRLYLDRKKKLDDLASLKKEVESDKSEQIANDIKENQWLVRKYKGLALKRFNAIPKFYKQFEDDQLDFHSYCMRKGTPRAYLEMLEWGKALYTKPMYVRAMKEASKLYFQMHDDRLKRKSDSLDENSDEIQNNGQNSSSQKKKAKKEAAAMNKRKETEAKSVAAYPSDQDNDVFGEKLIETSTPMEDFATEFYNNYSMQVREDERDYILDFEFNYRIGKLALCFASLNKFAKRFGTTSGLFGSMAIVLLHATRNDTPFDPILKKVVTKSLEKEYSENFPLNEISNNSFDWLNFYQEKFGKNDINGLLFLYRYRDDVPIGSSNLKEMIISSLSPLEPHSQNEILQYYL
T1 sequence (P07347 1-238): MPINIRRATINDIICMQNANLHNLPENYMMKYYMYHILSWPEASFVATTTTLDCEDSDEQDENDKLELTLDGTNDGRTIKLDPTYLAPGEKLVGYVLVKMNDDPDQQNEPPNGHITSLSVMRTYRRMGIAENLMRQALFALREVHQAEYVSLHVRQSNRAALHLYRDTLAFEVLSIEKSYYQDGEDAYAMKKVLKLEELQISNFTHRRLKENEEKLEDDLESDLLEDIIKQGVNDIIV
Experimental: as §1, §2

SEPETQKGVIFYESHGKLEYKDIP (SEPETQKGVIFYESHGKLEYKDIP)
Activity (%) (mean activity ± S.D.) M-N^a -AT [1]: 0%
Activity (%) (mean activity ± S.D.) N^a -AT [2]: 121 ± 6%

SFPETQKGVIFYESHGKLEYKDIP (SFPETQKGVIFYESHGKLEYKDIP)
Activity (%) (mean activity ± S.D.) M-N^a -AT [1]: 0%
Activity (%) (mean activity ± S.D.) N^a -AT [2]: 118 ± 6%

SGPETQKGVIFYESHGKLEYKDIP (SGPETQKGVIFYESHGKLEYKDIP)
Activity (%) (mean activity ± S.D.) M-N^a -AT [1]: 0%
Activity (%) (mean activity ± S.D.) N^a -AT [2]: 84 ± 5%

SHPETQKGVIFYESHGKLEYKDIP (SHPETQKGVIFYESHGKLEYKDIP)
Activity (%) (mean activity ± S.D.) M-N^a -AT [1]: 0%
Activity (%) (mean activity ± S.D.) N^a -AT [2]: 125 ± 6%

SKPETQKGVIFYESHGKLEYKDIP (SKPETQKGVIFYESHGKLEYKDIP)
Activity (%) (mean activity ± S.D.) M-N^a -AT [1]: 0%
Activity (%) (mean activity ± S.D.) N^a -AT [2]: 151 ± 6%

SLPETQKGVIFYESHGKLEYKDIP (SLPETQKGVIFYESHGKLEYKDIP)
Activity (%) (mean activity ± S.D.) M-N^a -AT [1]: 0%
Activity (%) (mean activity ± S.D.) N^a -AT [2]: 126 ± 5%

SMPETQKGVIFYESHGKLEYKDIP (SMPETQKGVIFYESHGKLEYKDIP)
Activity (%) (mean activity ± S.D.) M-N^a -AT [1]: 0%
Activity (%) (mean activity ± S.D.) N^a -AT [2]: 140 ± 7%

SNPETQKGVIFYESHGKLEYKDIP (SNPETQKGVIFYESHGKLEYKDIP)
Activity (%) (mean activity ± S.D.) M-N^a -AT [1]: 0%
Activity (%) (mean activity ± S.D.) N^a -AT [2]: 116 ± 5%

SPPETQKGVIFYESHGKLEYKDIP (SPPETQKGVIFYESHGKLEYKDIP)
Activity (%) (mean activity ± S.D.) M-N^a -AT [1]: 0%
Activity (%) (mean activity ± S.D.) N^a -AT [2]: 0%

SQPETQKGVIFYESHGKLEYKDIP (SQPETQKGVIFYESHGKLEYKDIP)
Activity (%) (mean activity ± S.D.) M-N^a -AT [1]: 0%
Activity (%) (mean activity ± S.D.) N^a -AT [2]: 134 ± 7%

SRPETQKGVIFYESHGKLEYKDIP (SRPETQKGVIFYESHGKLEYKDIP)
Activity (%) (mean activity ± S.D.) M-N^a -AT [1]: 0%
Activity (%) (mean activity ± S.D.) N^a -AT [2]: 102 ± 5%

SSPETQKGVIFYESHGKLEYKDIP (SSPETQKGVIFYESHGKLEYKDIP)
Activity (%) (mean activity ± S.D.) M-N^a -AT [1]: 0%
Activity (%) (mean activity ± S.D.) N^a -AT [2]: 140 ± 6%

STPETQKGVIFYESHGKLEYKDIP (STPETQKGVIFYESHGKLEYKDIP)
Activity (%) (mean activity ± S.D.) M-N^a -AT [1]: 0%
Activity (%) (mean activity ± S.D.) N^a -AT [2]: 144 ± 8%

SVPETQKGVIFYESHGKLEYKDIP (SVPETQKGVIFYESHGKLEYKDIP)
Activity (%) (mean activity ± S.D.) M-N^a -AT [1]: 0%
Activity (%) (mean activity ± S.D.) N^a -AT [2]: 123 ± 7%

SWPETQKGVIFYESHGKLEYKDIP (SWPETQKGVIFYESHGKLEYKDIP)
Activity (%) (mean activity ± S.D.) M-N^a -AT [1]: 0%
Activity (%) (mean activity ± S.D.) N^a -AT [2]: 91 ± 5%

SYPETQKGVIFYESHGKLEYKDIP (SYPETQKGVIFYESHGKLEYKDIP)
Activity (%) (mean activity ± S.D.) M-N^a -AT [1]: 0%
Activity (%) (mean activity ± S.D.) N^a -AT [2]: 169 ± 8%
